The experiment deals with T1, human PPARalpha receptor (GR-GAL4-humanPPARalpha-LBD fusion protein) (Homo sapiens, UniProt Q07869).
T1 construct: amino acids S167-Y468; expressed in transfected cells; host or cells: HEK (human embryo kidney) cells, stably transfected with pcDNA3 carrying the fusion construct
T1 sequence (Q07869 167-468): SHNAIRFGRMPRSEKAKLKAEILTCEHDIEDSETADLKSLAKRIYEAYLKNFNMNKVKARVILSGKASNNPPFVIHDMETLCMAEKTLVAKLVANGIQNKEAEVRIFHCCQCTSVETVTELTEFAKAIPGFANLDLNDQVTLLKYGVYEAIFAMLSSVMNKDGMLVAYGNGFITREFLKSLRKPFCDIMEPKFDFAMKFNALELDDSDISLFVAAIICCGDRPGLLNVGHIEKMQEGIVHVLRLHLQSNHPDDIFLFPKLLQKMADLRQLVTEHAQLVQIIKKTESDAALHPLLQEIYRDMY
The experiment can be described thus: Cellular PPARalpha assay (stably transfected HEK luciferase reporter cell line). It counts as cell-based. To be noted: 24 h incubation. The procedure:
(A) Determination of EC50 Values of PPAR Agonists in the Cellular PPARalpha Assay
The potency of substances which bind to human PPAR[…] and activate in an agonistic manner is analyzed using a stably transfected HEK cell line (HEK=human embryo kidney) which is referred to here as PPARalpha reporter cell line. It contains two genetic elements, a luciferase reporter element (pΔM-GAL4-Luc-Zeo) and a PPARalpha fusion protein (GR-GAL4-humanPPARα-LBD) which mediates expression of the luciferase reporter element depending on a PPARalpha ligand. The stably and constitutively expressed fusion protein GR-GAL4-humanPPARalpha-LBD binds in the cell nucleus of the PPARalpha reporter cell line via the GAL4 protein portion to the GAL4 DNA binding motifs 5′-upstream of the luciferase reporter element which is integrated in the genome of the cell line. There is only little expression of the luciferase reporter gene without addition of a PPARalpha ligand if fatty acid-depleted fetal calf serum (cs-FCS) is used in the assay. PPARα ligands bind and activate the PPARα fusion protein and thereby bring about expression of the luciferase reporter gene. The luciferase which is formed can be detected by means of chemi-luminescence via an appropriate substrate.
The PPARalpha reporter cell line was prepared in 2 stages. Firstly, the luciferase reporter element was constructed and stably transfected into HEK cells. For this purpose, five binding sites of the yeast transcription factor GAL4 (each 5′-CGGAGTACTGTCCTCCGAG-3′) (SEQ ID NO:1) were cloned in 5′-upstream of a 68 bp-long minimal MMTV promoter (Genbank Accession # V01175). The minimal MMTV promoter section contains a CCAAT box and a TATA element in order to enable efficient transcription by RNA polymerase II. The cloning and sequencing of the GAL4-MMTV construct took place in analogy to the description of Sambrook J. et. al. (Molecular cloning, Cold Spring Harbor Laboratory Press, 1989). Then the complete Photinus pyralis gene (Genbank Accession # M15077) was cloned in 3′-downstream of the GAL4-MMTV element. After sequencing, the luceriferase reporter element consisting of five GAL4 binding sites, MMTV promoter and luciferase gene was recloned into a plasmid which confers zeocin resistance in order to obtain the plasmid pΔM-GAL4-Luc-Zeo. This vector was transfected into HEK cells in accordance with the statements in Ausubel, F. M. et al. (Current protocols in molecular biology, Vol. 1-3, John Wiley & Sons, Inc., 1995). […] In a second step, the PPARalpha fusion protein (GR-GAL4-humanPPARalpha-LBD) was introduced into the stable cell clone described. For this purpose, initially the cDNA coding for the N-terminal 76 amino acids of the glucocorticoid receptor (Genbank Accession # P04150) was linked to the cDNA section coding for amino acids 1-147 of the yeast transcription factor GAL4 (Genbank Accession # P04386). The cDNA of the ligand-binding domain of the human PPARalpha receptor (amino acids S167-Y468; Genbank Accession # S74349) was cloned in at the 3′-end of this GR-GAL4 construct. The fusion construct prepared in this way (GR-GAL4-humanPPARalpha-LBD) was recloned into the plasmid pcDNA3 (from Invitrogen) in order to enable constitutive expression therein by the cytomegalovirus promoter. This plasmid was linearized with a restriction endonuclease and stably transfected into the previously described cell clone containing the luciferase reporter element. The finished PPARalpha reporter cell line which contains a luciferase reporter element and constitutively expresses the PPARalpha fusion protein (GR-GAL4-human PPARalpha-LBD) was isolated by selection with zeocin (0.5 mg/ml) and G418 (0.5 mg/ml).
The activity of PPARalpha agonists is determined in a 3-day assay which is described below: […]

Turning to `CC(C)c1oc(-c2ccc(C(F)(F)F)cc2)nc1COCC1CCCC(C(=O)N[C@H](C(=O)O)C(C)C)C1` (some centres unmarked) [Example 43], the EC50 (in general, the concentration that produces a half-maximal response) came to 0.032 µM.

Regarding `Cc1ccc(-c2nc(COC3CCCC(C(=O)NC(C)(C)C(=O)O)C3)c(C)o2)cc1` (racemic) [Example 5, 2-Methyl-2-{[(1R,3S)/(1S, 3R)-3-(5-methyl-2-p-tolyloxazol-4-ylmethoxy)-cyclohexanecarbonyl]amino}propionic acid], a half-maximal response (EC50) required 0.029 µM.

Regarding `Cc1oc(-c2cccc(C(F)(F)F)c2)nc1COCC1CCCC(C(=O)N[C@H](C(=O)O)C(C)C)C1` (some centres unmarked) [Example 44], a half-maximal effect (EC50) was put at 0.0045 µM.

The compound `Cc1ccc(-c2nc(COC3CCCC(C(=O)NC4(C(=O)O)CCCC4)C3)c(C)o2)cc1` (racemic) [Example 25, 1-{[(1R,3S)/(1S,3R)-3-(5-Methyl-2-p-tolyloxazol-4-ylmethoxy)cyclohexanecarbonyl]amino}cyclopentanecarboxylic acid] registered an EC50 of 0.0072 µM.

`CCc1oc(-c2ccc(C(F)(F)F)cc2)nc1COCC1CCCC(C(=O)N[C@H](C(=O)O)C(C)C)C1` (some centres unmarked) [Example 50]: the EC50 stood at 0.0012 µM.

As for `Cc1ccc(-c2nc(COC3CCCC(C(=O)N[C@@H](C)C(=O)O)C3)c(C)o2)cc1` (stereo partly drawn) [Example 3, (S)-2-{[(1R,3S)/(1S,3R)-3-(5-Methyl-2-p-tolyloxazol-4-ylmethoxy)cyclohexanecarbonyl]amino}propionic acid], the EC50 worked out at 0.099 µM.

Turning to `Cc1oc(-c2cccc(C(F)(F)F)c2)nc1COC1CCCC(C(=O)N[C@H](C(=O)O)C(C)C)C1` (stereo partly drawn) [Example 11, (S)-3-Methyl-2-({(1R,3S)/(1S,3R)-3-[5-methyl-2-(3-trifluoromethylphenyl)-oxazol-4-ylmethoxy]cyclohexanecarbonyl}amino)butyric acid], the EC50 was 0.015 µM.

`CCc1oc(-c2ccc(C)cc2)nc1CO[C@H]1CCC[C@@H](C(=O)N[C@H](C(=O)O)C(C)C)C1` [Example 21a, (S)-3-methyl-2-{[(1R,3S)-3-(5-ethyl-2-p-tolyloxazol-4-ylmethoxy)cyclohexanecarbonyl]amino}butyric acid]: the concentration for a half-maximal effect (EC50) was determined as 0.005 µM.

(Values after US7365084B2, “Cycloalkyl-substituted amino acid derivatives, processes for their preparation and their use as pharmaceuticals” (SanoFi-Aventis Deutschland GmbH, priority 2003, dated 2008).)
